In one assay the target is BRD4-1 (Homo sapiens (Human), UniProt O60885). As to the kind of experiment: Bromodomain and Extraterminal Domain (BET) Binding Assay. Particulars: Table 3; read-out: BRD4-1 IC50. As for the experimental part: (§1) The bromodomain binding assays were performed by Reaction Biology Corp., Malvern, Pa., USA (www.reactionbiology.com). The BET binding assays were conducted in 384 well microplates in assay buffer (50 mM HEPES-HCl, pH 7.5, 100 mM NaCl, 1 mg/ml BSA, 0.05% CHAPS, and 0.5% DMSO) with compounds added as DMSO stocks at a single concentration or with 10-point dose response titrations. BET protein or assay buffer were delivered to the appropriate wells of the microplate. Test compound was then delivered by acoustic technology via a Labcyte Echo550 liquid handler. The microplate was centrifuged for 5 min and pre-incubated for 30 min at RT with gentle shaking. The ligand (histone H4 peptide (1-21) K5/8/12/16Ac-biotin) was delivered and the microplate was again centrifuged for 5 min and allowed to incubate for 30 min at RT with gentle shaking. Donor beads were then added in the absence of light and the microplate was centrifuged and gently shaken. After 5 min, acceptor beads were added in the absence of light and the microplate was centrifuged and gently shakenin the dark for 60 min. The microplate was read using a Perkin Elmer EnSpire Alpha plate reader (λEx/λEm=680/520-620 nm). Percent inhibition was calculated relative to positive and negative controls on a per plate basis. For titration experiments, IC50 values were determined by fitting the percent inhibition versus compound concentration.

For a further assay, the target named is BRD4-2 (Homo sapiens (Human), UniProt O60885). Described as above. The conditions noted are these: Table 3; read-out: BRD4-2 IC50. As for the experimental part: as §1
Assay [1] relates to MV-4-11 human acute myeloid leukemia cell line. As to the kind of experiment: Second cell viability assay in MV-4-11 (Cell Titer-Glo). Format: cell-based. The conditions noted are these: Homo sapiens; MV4-11, Cell Titer-Glo, 72 hrs; read-out: Cell Viability IC50 in MV4-11 cells. As for the experimental part:
The effects of test compounds were studied in a second cell viability assay in the MV-4-11 human acute myeloid leukemia cell line. The cells were harvested during the logarithmic growth period and counted. Cells were seeded at a count of 15000 cells per well/100 μl. After seeding, cells were incubated at 37° C., 5% CO2 for 1 hr. Cells were treated with test compounds at 8 concentrations within a desired concentration range (e.g. 5 nM-[…]) for generation of dose response curves by preparing serial dilutions of the test compound in DMSO which were further diluted with culture medium and then added to each well. The plate was further incubated for another 72 hrs in a humidified incubator at 37° C. and 5% CO2. The assay was terminated by addition of Cell Titer-Glo reagent (Promega, Madison, Wis.) at ¼ the volume of total medium per well. Contents were mixed, the plate was incubated for 10 min at room temperature and luminescence was measured. Cell viability data were plotted using GraphPad Prism (GraphPad Software, Inc., San Diego, Calif.). In addition, a nonlinear regression model with a sigmoidal dose response and variable slope within GraphPad Prism was used to calculate the IC50 value of individual test compounds.

A further assay has as its system c-Myc. As to the kind of experiment: Measurement of c-Myc suppression after washoff (Western blot). It is filed as cell-based, human. Particulars: MV4-11, 2 μM for 2 hr, washed, further 6 hr. Here is the method:
MV4-11 cells were incubated with 2 μM of JQ1, mivebresib or a test compound for 2 hr. The cells were then washed twice with fresh culture medium and further cultured for another 6 hr. Cells were extracted with SDS sample buffers and then subjected to Western blot analysis to measure c-Myc. Compounds 2, 3, 12, 17, 409, 411 and 412 were tested in these assays.

Structures are written as SMILES.

For the compound `C=CS(=O)(=O)Nc1ccc(Oc2ccc(F)cc2F)c(-c2cc(N(C)C)c(=O)n(C)c2)c1` [Compound 16, N-(4-(2,4-difluorophenoxy)-3-(5-(dimethylamino)-1-methyl-6-oxo-1,6-dihydropyridin-3-yl)phenyl)ethenesulfonamide], the figures for the IC50 at BRD4-1 and at BRD4-2 were 6 nM and 26 nM, respectively. As to `C=CC(=O)Nc1ccc(Nc2ccc(F)cc2F)c(-c2cn(C)c(=O)c3ccccc23)c1` [Compound 305, N-(4-(2,4-difluorophenylamino)-3-(2-methyl-1-oxo-1,2-dihydroisoquinolin-4-yl)phenyl)acrylamide], the IC50 at BRD4-1 was determined as 1710 nM; on BRD4-2, 2170 nM. Take `C=CC(=O)Nc1ccc(Oc2c(C)cccc2C)c(-c2cn(C)c(=O)cc2OC(C)C)c1` [Compound 589, N-(4-(2,6-dimethylphenoxy)-3-(4-isopropoxy-1-methyl-6-oxo-1,6-dihydropyridin-3-yl)phenyl)acrylamide]: the IC50 in assay [1] turned out to be 181 nM; on BRD4-1, 7190 nM; at BRD4-2, 12 nM.

Regarding `C=CC(=O)Nc1ccc(Oc2c(C)cccc2C)c(-c2cn(C)c(=O)c3ccccc23)c1` [Compound 397, N-(4-(2,6-dimethylphenoxy)-3-(2-methyl-1-oxo-1,2-dihydroisoquinolin-4-yl)phenyl)acrylamide], the IC50 on BRD4-1 was 9710 nM; on BRD4-2, 549 nM. For `C=CC(=O)Nc1ccc(Nc2c(C)cccc2C)c(-c2cn(C)c(=O)c3ccccc23)c1` [Compound 313, N-(4-(2,6-dimethylphenylamino)-3-(2-methyl-1-oxo-1,2-dihydroisoquinolin-4-yl)phenyl)acrylamide], the IC50 is greater than 10000 nM at BRD4-1 and 885 nM on BRD4-2. In the case of `C/C=C/S(=O)(=O)Nc1ccc(Oc2ccc(F)cc2F)c(-c2cn(C)c(=O)c3ccccc23)c1` [Compound 86, (E)-N-(4-(2,4-difluorophenoxy)-3-(2-methyl-1-oxo-1,2-dihydroisoquinolin-4-yl)phenyl)prop-1-ene-1-sulfonamide], the IC50 turned out to be 273 nM in assay [1] and 80 nM on BRD4-2. In the case of `C/C=C/C(=O)Nc1ccc(Oc2c(C)cccc2C)c(-c2cn(C)c(=O)c3cc(C(=O)NCC)sc23)c1` [Compound 611, (E)-7-(5-but-2-enamido-2-(2,6-dimethylphenoxy)phenyl)-N-ethyl-5-methyl-4-oxo-4,5-dihydrothieno[3,2-c]pyridine-2-carboxamide], the IC50 turned out to be 7370 nM on BRD4-1 and 2 nM at BRD4-2.

As for `CCS(=O)(=O)Nc1ccc(Oc2ccc(F)cc2F)c(-c2cn(C)c(=O)c3[nH]ccc23)c1` [mivebresib, reference compound], the “c-Myc suppression activity after washoff” value in the assay with c-Myc was “rebound in c-Myc expression”. As for `C=CC(=O)Nc1ccc(Oc2ccc(F)cc2F)c(-c2cc(N(C)C)c(=O)n(C)c2)c1` [Compound 29, N-(4-(2,4-difluorophenoxy)-3-(5-(dimethylamino)-1-methyl-6-oxo-1,6-dihydropyridin-3-yl)phenyl)acrylamide], the IC50 was 30 nM at BRD4-1 and 15 nM on BRD4-2. As to `CCS(=O)(=O)Nc1ccc(Oc2ccc(F)cc2F)c(-n2cc(C)c(=O)c3ccccc32)c1` [Compound 616, N-(4-(2,4-difluorophenoxy)-3-(3-methyl-4-oxoquinolin-1(4H)-yl)phenyl) ethanesulfonamide], the IC50 was 38 nM in assay [1], 11 nM on BRD4-1 and 4 nM on BRD4-2. The like results for `C=CC(=O)Nc1ccc(Oc2c(C)cccc2C)c(-c2cn(C)c(=O)c3sc(C(=O)NCC)cc23)c1` [Compound 381, 4-(5-acrylamido-2-(2,6-dimethylphenoxy)phenyl)-N-ethyl-6-methyl-7-oxo-6,7-dihydrothieno[2,3-c]pyridine-2-carboxamide] were, in that order, 172 nM, 12500 nM and 13 nM.

In the case of `C=CC(=O)Nc1ccc(Oc2c(C)cc(F)cc2C)c(-c2cn(C)c(=O)c3ccccc23)c1` [Compound 408, N-(4-(4-fluoro-2,6-dimethylphenoxy)-3-(2-methyl-1-oxo-1,2-dihydroisoquinolin-4-yl)phenyl)acrylamide], the values for the IC50 at BRD4-1 and at BRD4-2 were 15900 nM and 434 nM, respectively.

For the compound `C=CC(=O)Nc1ccc(Oc2c(F)cccc2F)c(-c2cn(C)c(=O)c3ccccc23)c1` [Compound 583, N-(4-(2,6-difluorophenoxy)-3-(2-methyl-1-oxo-1,2-dihydroisoquinolin-4-yl)phenyl)acrylamide], the IC50 in assay [1] amounted to 254 nM; at BRD4-2, 78 nM. Consider `C=CC(=O)Nc1ccc(Oc2ccc(F)cc2F)c(-n2cc(C)c(=O)c3ccccc32)c1` [Compound 613, N-(4-(2,4-difluorophenoxy)-3-(3-methyl-4-oxoquinolin-1(4H)-yl)phenyl)acrylamide], for which the concentration for half-maximal inhibition (IC50) in assay [1] was found to be 6020 nM; at BRD4-2 it was 27 nM. With `C=CC(=O)Nc1ccc(Oc2c(C)cc(F)cc2C)c(-c2cc(NC)c(=O)n(C)c2)c1` [Compound 167, N-(4-(4-fluoro-2,6-dimethylphenoxy)-3-(1-methyl-5-(methylamino)-6-oxo-1,6-dihydropyridin-3-yl)phenyl)acrylamide], the results for the IC50 (in assay [1]; on BRD4-1; on BRD4-2) were 97 nM, 424 nM and 17 nM, respectively. As for `C=CC(=O)Nc1ccc(Oc2ccc(F)cc2F)c(-c2cc(NC)c(=O)n(C)c2)c1` [Compound 1, N-(4-(2,4-difluorophenoxy)-3-(1-methyl-5-(methylamino)-6-oxo-1,6-dihydropyridin-3-yl)phenyl)acrylamide], the IC50 on BRD4-1 turned out to be 188 nM; at BRD4-2 it was 64 nM. Take `C=CC(=O)Nc1ccc(Oc2ccc(F)cc2)c(-c2cc(NC)c(=O)n(C)c2)c1` [Compound 30, N-(4-(4-fluorophenoxy)-3-(1-methyl-5-(methylamino)-6-oxo-1,6-dihydropyridin-3-yl)phenyl)acrylamide]: the results for the IC50 on BRD4-1 and at BRD4-2 were 104 nM and 57 nM, respectively. Turning to `C#CC(=O)Nc1ccc(Oc2c(C)cccc2C)c(-c2cn(C)c(=O)c3cc(C(=O)NCC)sc23)c1` [Compound 587, 7-(2-(2,6-dimethylphenoxy)-5-propiolamidophenyl)-N-ethyl-5-methyl-4-oxo-4,5-dihydrothieno[3,2-c]pyridine-2-carboxamide], the values for the IC50 (in assay [1]; on BRD4-2) were 45 nM and 11 nM, respectively. `C=CS(=O)(=O)Nc1ccc(Oc2ccc(OC)cc2)c(-c2cn(C)c(=O)c3ccccc23)c1` [Compound 12, N-(4-(4-methoxyphenoxy)-3-(2-methyl-1-oxo-1,2-dihydroisoquinolin-4-yl)phenyl)ethenesulfonamide]: the IC50 at BRD4-2 stood at 37 nM. In the assay on c-Myc, the “c-Myc suppression activity after washoff” value is “less durable or no suppression activity”. As for `C=CS(=O)(=O)N(C)c1ccc(Oc2ccc(F)cc2F)c(-c2cc(NC)c(=O)n(C)c2)c1` [Compound 15, N-(4-(2,4-difluorophenoxy)-3-(1-methyl-5-(methylamino)-6-oxo-1,6-dihydropyridin-3-yl)phenyl)-N-methylethenesulfonamide], the IC50 at BRD4-2 came to 34 nM. Still for that read-out and setting: for `C=CC(=O)N(C)c1ccc(Oc2ccc(F)cc2F)c(-c2cn(C)c(=O)c3ccccc23)c1` [Compound 396, N-(4-(2,4-difluorophenoxy)-3-(2-methyl-1-oxo-1,2-dihydroisoquinolin-4-yl)phenyl)-N-methylacrylamide] the value was 298 nM. As for `Cc1cccc(C)c1Oc1ccc(NC(=O)/C=C/CN(C)C)cc1-c1cn(C)c(=O)c2ccccc12` [Compound 410, (E)-4-(dimethylamino)-N-(4-(2,6-dimethylphenoxy)-3-(2-methyl-1-oxo-1,2-dihydroisoquinolin-4-yl)phenyl)but-2-enamide], at BRD4-2, the IC50 worked out at 758 nM. Take `CC#CC(=O)Nc1ccc(Oc2ccc(F)cc2F)c(-c2cn(C)c(=O)c3ccccc23)c1` [Compound 393, N-(4-(2,4-difluorophenoxy)-3-(2-methyl-1-oxo-1,2-dihydroisoquinolin-4-yl)phenyl)but-2-ynamide]: the IC50 on BRD4-2 is 261 nM.

The term IC50 denotes the concentration needed to halve the response being measured.
